Test results reported in US10213494B2, “Treatment of synucleinopathies” (The Brigham and Women's Hospital, Inc., priority 2007, dated 2019).

Columns and labels:
[1] = system: α-synuclein protein (wild-type, human) in MES23.5 cells; assay: Sandwich ELISA of intracellular α-synuclein in MES23.5 cells co-transfected with wild-type human SNCA cDNA and lysosomal enzyme cDNA; type: cell-based; details: for intracellular α-synuclein level, % of control levels: n=2
Experimental: Sera from six rabbits were raised and affinity-purified at Open Biosystems, Inc. (openbiosystems.com) against recombinant, full-length human αS. Recombinant αS had been HPLC- and MS-characterized and subjected to amino acid composition and protein concentration analyses. For ELISA, 384-well MaxiSorp plates (Nunc, Inc) were coated with 50 μl/well capturing polyclonal Ab (hSA-2) diluted in coating buffer (NaHCO3 with 0.2% NaN3, pH 9.6). Following washes with PBS/0.05% Tween-20 (PBS-T), plates were blocked for 2 hours at 37° C. in blocking buffer (1.125% fish skin gelatin; PBS-T). After 4 washes, samples were loaded and incubated at 4° C. for 12 hours. Biotinylated Syn-1 mAb (as the assaying Ab) was generated using 200 μg Sulfo-NHS-LC Biotin (Pierce), diluted in blocking buffer and added to the plate for 2 hours at 37° C. Following 4 washes, ExtrAvidin phosphatase (Sigma) diluted in blocking buffer was applied for 1 hr at 37° C. Color development was carried out by using Fast-p-Nitrophenyl Phosphate (Sigma) and monitored kinetically at OD 405 nm every 5 minutes for up to 60 minutes.
To optimize a ‘DNA: LIPOFECTAMINE® 2000’ ratio with low cell toxicity, MES23.5 cells were transfected with either 0.25, 0.5 or 1 μg αS-encoding, wild-type, human SNCA cDNA plus empty vector cDNA up to a total of 5.5 μg DNA per 10 cm dish. 24 hours after transfection, cell lysates were harvested as described above. For serial dilutions of cell lysates, blocking buffer containing 0.5% lysate from vector-transfected wells was used as diluent, which was also used to create the blank and the corresponding standard curve of recombinant human αS. Saturation kinetics were examined for identification of time point(s) where standards and sample dilutions were in the log phase.
MES cells were transfected with 0.5 μg per 10 cm dish of αS-encoding SNCA cDNA-carrying plasmid, plus 5 μg per 10 cm dish of wild-type or mutant, human GBA-encoding plasmid. The GBA variants used were wild type, N370S, D409H, L444P, E235A, and E340A. These 5 GBA mutants were created by site-directed mutagenesis, using the Quickchange® kit (Stratagene), and sequence-verified. The N370S, D409H and L444P are known to occur (in the homozygous or compound heterozygous state) in Gaucher disease in the heterozygous state in Parkinson Disease patients and/or patients with dementia with Lewy bodies. The E235A and E340A mutant GBA proteins are not known to occur in people.
24 hours after transfection, MES cells were lysed as described above and all lysates were analyzed by ELISA. […] This is in contrast to the result observed in Example 5 above. The observed discrepancy can reflect the differences in total DNA transfected in the two paradigms (FIG. 2B; FIG. 2C versus FIG. 4), thereby leading to changes in the DNA:LIPOFECTAMINE® 2000 ratio, and in the role of co-expressed prosaposin (saposin C). It is therefore conceivable that wild-type GBA can have variable effects on αS levels in these MES23.5 cells, depending on the rate of αS import into lysosomes and the composition as well as activation state of more than one lysosomal enzyme.
MES23.5 cells were transfected with 0.5 μg per 10 cm dish of an αS-encoding, wild-type, human SNCA cDNA-carrying plasmid (referred to as MES-hSNCA WT cells in the Western blot shown in FIG. 6), plus either 1.25, 2.5 or 5 μg per 10 cm dish of a human Cathepsin D-encoding CTSD cDNA plasmid, which was purchased from OriGene Technologies, Inc., and was under the control of a CMV promoter. The Cathepsin D clone was fully sequence-verified after isolation and maxiprep. Each transfection arm was balanced with empty vector DNA up to a total of 5.5 μg DNA per 10 cm dish. 24 hours after transfection, cells were lysed, and the resulting lysates were analyzed by the sandwich ELISA described herein. […]

[2] = system: MES-syn cells; assay: MTT assay of cellular metabolism; type: cell-based, rodent; details: CTSD cDNA 5 μg/10 cm dish; control vector 100+/−4.05%; n=6
Experimental: (§1) To confirm that the effect of Cathepsin D on lowering of αS in MES23.5 cells was specific and was not caused by a general decrease in cellular metabolism and integrity, the MTT and LDH assays were performed on MES-syn cells that had been co-transfected with the highest amount of Cathepsin D-encoding cDNA (5 μg/10 cm dish). Lysis of cells with 0.1% Triton-X® 100 served as a positive control, representing maximal cell death.

[3] = system: MES-syn cells; assay: LDH release assay of cellular integrity; type: cell-based, rodent; details: enzyme cDNA 5 μg/10 cm dish, versus control vector transfected cells
Experimental: as §1
To confirm that the effect of Cathepsin F on lowering of αS was specific and was not caused by a general decrease in cellular integrity, the LDH assay was performed on MES-syn cells that had been co-transfected with Cathepsin F-encoding CTSF cDNA (5 μg/10 cm dish). Lysis of cells with 0.1% Triton-X 100 served as a positive control for cell toxicity, promoting maximal cell death.

Substance: cathepsin D: human lysosomal aspartyl protease expressed from CTSD cDNA plasmid under a CMV promoter
- intracellular α-synuclein level, % of control levels ([1]; cathepsin D cDNA 1.25 μg/10 cm dish, 24 hours): 68+/−17.7%
- intracellular α-synuclein level, % of control levels ([1]; cathepsin D cDNA 2.5 μg/10 cm dish, 24 hours): 53+/−16.8%
- intracellular total α-synuclein level, % of control levels ([1]; cathepsin D cDNA 5 μg/10 cm dish, 24 hours, n=11): 25.3+/−7.0%
- αS-lowering effect, percent of total intracellular αS concentration detectable ([1]; cathepsin D co-expression): ≤ 75%
- MTT signal [2]: 101.3+/−3.91%
- LDH signal [3]: identical to that of control vector transfected cells
